2 compounds from patent US20250101062A1, “ANTIMICROBIAL PEPTIDES” (Board of Regents of the University of Nebraska, priority 2023, published 2025) can be followed below.

Where two headings read alike, the source gives them in different places. Where no end group is shown, it is not given here.

The subject of assay [1] is S. aureus USA300 biofilms in murine wounds. The experiment in a line: In vivo biofilm assay, murine wound model. More on the design: species or system BALB/c mice. The settings on record: topical, 24 h. The procedure: Preparation of Inoculum. An overnight culture of S. aureus USA300 LAC was inoculated in fresh MHB and incubated at 37° C. for 3 hours. The suspension was centrifuged at 3000 g for 5 minutes, and the supernatant was discarded. The bacteria were resuspended in 1×PBS, and the OD600 was adjusted to 0.6 (˜3×10^7 CFU/mL).
Experimental Animals. An alternative murine wound model has been established which is slightly different from other studies (Su, et al. (2019) Mol. Pharmaceutics 16:2011-2020; Su, et al. (2023) J. Controlled Release 356:131-141). Female BALB/c mice (3-4 weeks, ˜20 g) were fed with standardized food (Teklad Laboratory diet for rodents) and water (Hydropac Alternative Watering System) ad libitum. Mice were kept in ventilated cages (IVCs) at a temperature of 20-24° C., a humidity of 50-60%, 60 air exchanges per hour, and a 12/12 hour light/dark cycle. All materials, including IVCs, lids, feeders, bottles, bedding, and water, were autoclaved before use. All animal manipulations were performed in a class II laminar flow biological safety cabinet. The study was approved by the Institutional Animal Care and Use Committee (IACUC) of UNMC (Protocol no. 22-015-08-FC).
In Vivo Biofilm Assay. Mice were anesthetized by intraperitoneal injection of ketamine-xylazine (100 mg/kg+10 mg/kg). […] Finally, the plates were incubated at 37° C. for 20 hours and the CFUs were counted. […]

Assay [2] deals with P. aeruginosa E411-17. The experiment in a line: microbe, parasite or virus in culture. It is filed as cell-based, Pseudomonas aeruginosa. The settings on record: for MIC: read-out: Antimicrobial activity (MIC). The method, boiled down: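 Broth microdilution with twofold peptide dilutions, using exponential-phase bacteria at about 10^5 CFU/mL in MHB, incubated overnight at 37 °C and read at OD600. MIC, reported as a range, is the peptide concentration with no growth. Some tests used diluted MHB/TSB/LB, adjusted pH, or added NaCl or human serum.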

For the compound `CCCCCCCCCC(=O)N[C@@H](Cc1c[nH]c2ccccc12)C(=O)N[C@H](CC(N)=O)C(=O)N[C@@H](CC(=O)O)C(=O)N[C@@H]1C(=O)NCC(=O)N[C@@H](CCCN)C(=O)N[C@@H](CC(=O)O)C(=O)N[C@H](C)C(=O)N[C@@H](CC(=O)O)C(=O)NCC(=O)N[C@H](CO)C(=O)N[C@@H]([C@H](C)CC(=O)O)C(=O)N[C@@H](CC(=O)c2ccccc2N)C(=O)O[C@@H]1C` [Daptomycin], the “reduction of bacterial burden” value in assay [1] (10 mg/kg per wound) was roughly 3 logs. The MIC in assay [2] (Human serum 5%) was greater than 8 µM; in assay [2] (Human serum 10%), greater than 8 µM; in assay [2] (Pseudomonas aeruginosa, E41117, pH 6.21), greater than 8 µM; in assay [2] (Pseudomonas aeruginosa, E41117, pH 7.22) it was greater than 8 µM; in assay [2] (Pseudomonas aeruginosa, E41117, pH 8.13) it was greater than 8 µM; in assay [2] (Pseudomonas aeruginosa, E41117, NaCl (150 mM)), greater than 8 µM.
On to RRWWRWWR-NH2 [W543], for which the “bacterial CFU decrease” value in assay [1] (4.4 mg/kg per wound) came to 2 log. The “Activity (MIC) P. aeruginosa” value in assay [2] (E411-17) stood at 8 µM.
